Laboratory results reported in PMC3849266, “In Vitro and In Vivo Evaluation of a ^18F-Labeled High Affinity NOTA Conjugated Bombesin Antagonist as a PET Ligand for GRPR-Targeted Tumor Imaging” (PLoS ONE, 2013).
“Also recorded” adds a separate entry of the source. Where two headings read alike, the source gives them in different places.

How the values were obtained:
murine GRPRs = target: T1, murine GRPRs (Mus musculus, UniProt P21729); assay: Biodistribution and in vivo binding specificity in NMRI mice; conditions: iv, total radioactivity, male NMRI mice, 45 pmol i.v., 1 h p.i.
T1 construct: from tissue; host or cells: organs of male NMRI mice, in vivo (pancreas, stomach, small intestine and others)
T1 sequence (P21729 whole entry): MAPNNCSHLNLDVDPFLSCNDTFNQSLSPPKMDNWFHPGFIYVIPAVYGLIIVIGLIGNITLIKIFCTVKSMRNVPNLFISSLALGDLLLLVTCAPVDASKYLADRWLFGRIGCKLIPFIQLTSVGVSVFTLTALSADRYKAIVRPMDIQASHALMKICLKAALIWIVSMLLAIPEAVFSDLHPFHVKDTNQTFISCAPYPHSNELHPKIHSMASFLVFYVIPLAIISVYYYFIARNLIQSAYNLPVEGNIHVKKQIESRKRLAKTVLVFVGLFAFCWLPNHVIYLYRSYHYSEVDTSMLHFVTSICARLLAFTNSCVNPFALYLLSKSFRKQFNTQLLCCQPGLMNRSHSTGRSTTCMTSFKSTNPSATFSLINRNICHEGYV
From the text: (§1) All animal studies were planned and performed in accordance with the national legislation on the protection of laboratory animals and the Ethic Committee for Animal Research of the Uppsala University approved the study plans. Randomly divided groups of 4 mice per data point were used in all experiments. […] BALB/c nu/nu male mice with PC-3 xenografts (weight 20±1 g at the time of the experiment) were used for tumor targeting and imaging studies. The tumors were grafted by subcutaneous injection of PC-3 cells (10^7 cells/mouse) into the right hind legs 3 weeks before the experiment. The average tumor size was 0.42±0.05 g at the time of the experiment.
(§2) The mice were euthanized 1 h post-injection (p.i.) by intraperitoneal administration of Ketalar-Rompun solution (10 mg/mL Ketalar and 1 mg/mL Rompun; 20 µL of solution per gram of body weight). Blood samples were collected by cardiac puncture. The organs of interest were collected, weighed and their radioactivity was measured. The organ uptake values were expressed as a percentage of the injected dose per gram of tissue (%ID/g) except for the gastrointestinal tract (GI) and carcass, which were expressed as %ID per whole sample.

[1] = as above; conditions: mouse, iv, total radioactivity, male NMRI mice, 45 pmol i.v., 1 h p.i.
From the text: as §1, §2

PC-3 xenografts = assay: Biodistribution and in vivo binding specificity in PC-3 tumor-bearing BALB/c nu/nu mice
From the text: as §1
(§3) The mice were sacrificed at 1, 3 and 6 h p.i. to determine the uptake in tumors and other receptor-positive organs. A group of animals was co-injected with an excess of non-labeled peptide (20 nmol) and sacrificed 1 h p.i. The blood and other organs of interest were collected and treated as described above.

[2] = as above; conditions: mouse, iv, total radioactivity, male BALB/c nu/nu mice with PC-3 xenografts, 45 pmol i.v.; for tissue uptake at 1 h / tissue uptake at 6 h / tissue uptake at 3 h: male, BALB/c nu/nu; for tissue uptake at 1 h / tissue uptake dose at 1 h: 1 h p.i.; for tissue uptake at 6 h / tissue uptake dose at 6 h: 6 h p.i.; for tissue uptake at 3 h / tissue uptake dose at 3 h: 3 h p.i.
From the text: as §1, §3

[3] = Labeling stability in murine serum (SDS-PAGE); format: in vitro ADME; conditions: 37 °C, 1 h
Method: The labeling stability was evaluated using SDS-PAGE analysis (200 V constant) on NuPAGE 4–12% bis-Tris gels (Invitrogen) with the aims to check the release of fluorine-18, transchelation of [^18F]AlF to serum proteins, and cleavage of labeled protein by peptidases. […] After incubation, the samples were treated with NuPAGE® LDS Sample Buffer according to the manufacturer’s instructions and finally 0.05 nmol of sample loaded on the gel. Na^18F-sodium fluoride was loaded in a separate lane as a low molecular weight internal reference.

[4] = blood, blocked (co-injected 20 nmol non-labeled peptide), read-out: Blood uptake
[5] = bone, blocked (co-injected 20 nmol non-labeled peptide), read-out: Bone uptake
[6] = kidney, blocked (co-injected 20 nmol non-labeled peptide), read-out: Kidney uptake
[7] = liver, blocked (co-injected 20 nmol non-labeled peptide), read-out: Liver uptake
[8] = lung, blocked (co-injected 20 nmol non-labeled peptide), read-out: Lung uptake
[9] = muscle, blocked (co-injected 20 nmol non-labeled peptide), read-out: Muscle uptake
[10] = pancreas, blocked (co-injected 20 nmol non-labeled peptide), read-out: Pancreas uptake
[11] = small intestine, blocked (co-injected 20 nmol non-labeled peptide), read-out: Small intestine uptake
[12] = spleen, blocked (co-injected 20 nmol non-labeled peptide), read-out: Spleen uptake
[13] = stomach, blocked (co-injected 20 nmol non-labeled peptide), read-out: Stomach uptake
[14] = carcass (whole sample), read-out: Carcass uptake
[15] = carcass (whole sample), blocked (co-injected 20 nmol non-labeled peptide), read-out: Carcass uptake
[16] = gastrointestinal tract (whole sample), read-out: GI tract uptake
[17] = gastrointestinal tract (whole sample), blocked (co-injected 20 nmol non-labeled peptide), read-out: GI tract uptake
[18] = male BALB/c nu/nu mice with PC-3 xenografts, 45 pmol i.v., 3 h p.i.
[19] = blood, 45 pmol, read-out: Blood uptake
[20] = bone, 45 pmol, read-out: Bone uptake
[21] = kidney, 45 pmol, read-out: Kidney uptake
[22] = liver, 45 pmol, read-out: Liver uptake
[23] = lung, 45 pmol, read-out: Lung uptake
[24] = muscle, 45 pmol, read-out: Muscle uptake
[25] = pancreas, 45 pmol, read-out: Pancreas uptake
[26] = small intestine, 45 pmol, read-out: Small intestine uptake
[27] = spleen, 45 pmol, read-out: Spleen uptake
[28] = stomach, 45 pmol, read-out: Stomach uptake
[29] = tumor (PC-3 xenograft), 45 pmol, read-out: Tumor uptake

## CC(C)C[C@H](NC(=O)C[C@H](O)[C@H](CC(C)C)NC(=O)[C@H](Cc1c[nH]cn1)NC(=O)CNC(=O)[C@@H](NC(=O)[C@H](C)NC(=O)[C@H](Cc1c[nH]c2ccccc12)NC(=O)[C@H](CCC(N)=O)NC(=O)[C@@H](Cc1ccccc1)NC(=O)COCCOCCNC(=O)CN1CCN(CC(=O)O)CCN(CC(=O)O)CC1)C(C)C)C(N)=O [[^18F]AlF-NOTA-P2-RM26]
Murine GRPRs; blood, read-out: Blood uptake
  tissue uptake at 1 h: 0.3 ± 0.1 %ID/g
Murine GRPRs; [4]
  tissue uptake at 1 h: 0.3 ± 0.1 %ID/g
Murine GRPRs; bone, read-out: Bone uptake
  tissue uptake at 1 h: 0.3 ± 0.2 %ID/g
Murine GRPRs; [5]
  tissue uptake at 1 h: 0.2 ± 0.1 %ID/g
Murine GRPRs; kidney, read-out: Kidney uptake
  tissue uptake at 1 h: 2.8 ± 0.5 %ID/g
Murine GRPRs; [6]
  tissue uptake at 1 h: 3.4 ± 0.8 %ID/g
Murine GRPRs; liver, read-out: Liver uptake
  tissue uptake at 1 h: 1.2 ± 0.3 %ID/g
Murine GRPRs; [7]
  tissue uptake at 1 h: 1.4 ± 0.4 %ID/g
Murine GRPRs; lung, read-out: Lung uptake
  tissue uptake at 1 h: 0.3 ± 0.2 %ID/g
Murine GRPRs; [8]
  tissue uptake at 1 h: 0.3 ± 0.1 %ID/g
Murine GRPRs; muscle, read-out: Muscle uptake
  tissue uptake at 1 h: 0.09 ± 0.03 %ID/g
Murine GRPRs; [9]
  tissue uptake at 1 h: 0.08 ± 0.03 %ID/g
Murine GRPRs; pancreas, read-out: Pancreas uptake
  tissue uptake at 1 h: 14 ± 6 %ID/g
Murine GRPRs; [10]
  tissue uptake at 1 h: 0.4 ± 0.1 %ID/g
Murine GRPRs; small intestine, read-out: Small intestine uptake
  tissue uptake at 1 h: 4 ± 2 %ID/g
Murine GRPRs; [11]
  tissue uptake at 1 h: 1.7 ± 0.7 %ID/g
Murine GRPRs; spleen, read-out: Spleen uptake
  tissue uptake at 1 h: 0.6 ± 0.3 %ID/g
Murine GRPRs; [12]
  tissue uptake at 1 h: 0.16 ± 0.08 %ID/g
Murine GRPRs; stomach, read-out: Stomach uptake
  tissue uptake at 1 h: 2 ± 1 %ID/g
Murine GRPRs; [13]
  tissue uptake at 1 h: 0.3 ± 0.1 %ID/g
[1]; [14]
  tissue uptake dose at 1 h: 5 ± 2 %ID
[1]; [15]
  tissue uptake dose at 1 h: 5 ± 1 %ID
[1]; [16]
  tissue uptake dose at 1 h: 11 ± 3 %ID
[1]; [17]
  tissue uptake dose at 1 h: 5 ± 1 %ID
PC-3 xenografts; PC-3 xenografted mice, 1 h p.i., 20 nmol non-labeled peptide
  decrease of tumor uptake by co-injection of non-labeled peptide: more than 8 fold
PC-3 xenografts; [18]
  Stomach uptake: 1.4±0.4 %ID/g
  Tumor uptake: 5.53±0.75 %ID/g
[2]; [19]
  tissue uptake at 1 h: 0.48 ± 0.08 %ID/g
  tissue uptake at 6 h: 0.023 ± 0.001 %ID/g
[2]; [4]
  tissue uptake at 1 h: 0.4 ± 0.2 %ID/g
[2]; [20]
  tissue uptake at 1 h: 0.3 ± 0.08 %ID/g
  tissue uptake at 3 h: 0.17 ± 0.08 %ID/g
  tissue uptake at 6 h: 0.22 ± 0.08 %ID/g
[2]; [5]
  tissue uptake at 1 h: 0.2 ± 0.2 %ID/g
[2]; [21]
  tissue uptake at 1 h: 3.6 ± 0.3 %ID/g
  tissue uptake at 3 h: 1.74 ± 0.25 %ID/g
  tissue uptake at 6 h: 0.27 ± 0.06 %ID/g
[2]; [6]
  tissue uptake at 1 h: 3.9 ± 0.8 %ID/g
[2]; [22]
  tissue uptake at 1 h: 1.9 ± 0.4 %ID/g
  tissue uptake at 3 h: 0.45 ± 0.21 %ID/g
  tissue uptake at 6 h: 0.1 ± 0.02 %ID/g
[2]; [7]
  tissue uptake at 1 h: 1.6 ± 0.3 %ID/g
[2]; [23]
  tissue uptake at 1 h: 0.36 ± 0.06 %ID/g
  tissue uptake at 3 h: 0.2 ± 0.2 %ID/g
  tissue uptake at 6 h: 0.11 ± 0.08 %ID/g
[2]; [8]
  tissue uptake at 1 h: 0.4 ± 0.3 %ID/g
[2]; [24]
  tissue uptake at 1 h: 0.1 ± 0.03 %ID/g
  tissue uptake at 3 h: 0.03 ± 0.01 %ID/g
  tissue uptake at 6 h: 0.02 ± 0.01 %ID/g
[2]; [9]
  tissue uptake at 1 h: 0.09 ± 0.04 %ID/g
[2]; [25]
  tissue uptake at 1 h: 13 ± 2 %ID/g
  tissue uptake at 3 h: 2.7 ± 0.7 %ID/g
[2]; [10]
  tissue uptake at 1 h: 0.3 ± 0.2 %ID/g
[2]; [26]
  tissue uptake at 1 h: 4 ± 2 %ID/g
  tissue uptake at 3 h: 0.88 ± 0.39 %ID/g
  tissue uptake at 6 h: 0.13 ± 0.06 %ID/g
[2]; [11]
  tissue uptake at 1 h: 2.6 ± 0.9 %ID/g
[2]; [27]
  tissue uptake at 1 h: 1 ± 0.2 %ID/g
  tissue uptake at 3 h: 0.1 ± 0.03 %ID/g
  tissue uptake at 6 h: 0.15 ± 0.08 %ID/g
[2]; [12]
  tissue uptake at 1 h: 0.7 ± 0.2 %ID/g
[2]; [28]
  tissue uptake at 1 h: 2.4 ± 0.4 %ID/g
  tissue uptake at 3 h: 1.37 ± 0.35 %ID/g
  tissue uptake at 6 h: 0.33 ± 0.08 %ID/g
[2]; [13]
  tissue uptake at 1 h: 0.4 ± 0.1 %ID/g
[2]; [29]
  tissue uptake at 1 h: 6.3 ± 0.9 %ID/g
  tissue uptake at 3 h: 5.5 ± 0.7 %ID/g
  tissue uptake at 6 h: 2.3 ± 0.7 %ID/g
[2]; tumor (PC-3 xenograft), blocked (co-injected 20 nmol non-labeled peptide), read-out: Tumor uptake
  tissue uptake at 1 h: 0.8 ± 0.2 %ID/g
[2]; [14]
  tissue uptake dose at 1 h: 6 ± 1 %ID
  tissue uptake dose at 3 h: 3.8 ± 0.3 %ID
  tissue uptake dose at 6 h: 0.8 ± 0.2 %ID
[2]; [15]
  tissue uptake dose at 1 h: 4 ± 1 %ID
[2]; [16]
  tissue uptake dose at 1 h: 6.1 ± 0.8 %ID
  tissue uptake dose at 3 h: 5.2 ± 0.4 %ID
  tissue uptake dose at 6 h: 3 ± 0.1 %ID
[2]; [17]
  tissue uptake dose at 1 h: 4.8 ± 0.3 %ID
[3]
  stability in murine serum: stable; also recorded: single radioactivity peak
